# US11547697B2, “Heterocyclic compounds and uses thereof” (MILLENNIUM PHARMACEUTICALS, INC., priority 2009, dated 2023)
# Read-outs that look alike come from different tables or passages of the source.
# Legend:
# p110α/p85α = p110α/p85α (Homo sapiens (Human), UniProt P42336); test: PI 3-Kinase (human) HTRF assay, p110α/p85α; type: biochemical
# p110β/p85α = p110β/p85α (Homo sapiens (Human), UniProt P42338); test: PI 3-Kinase (human) HTRF assay, p110β/p85α; type: biochemical
# Description: (§1) An exemplary system is PI 3-Kinase (human) HTRF™ Assay from Upstate. […] Briefly, the assay is a time resolved FRET assay that indirectly measures PIP3 product formed by the activity of a PI3-K. The kinase reaction is performed in a microtitre plate (e.g., a 384 well microtitre plate). The total reaction volume is approximately 20 ul per well. In the first step, each well receives 2 ul of test compound in 20% dimethylsulphoxide resulting in a 2% DMSO final concentration. Next, approximately 14.5 ul of a kinase/PIP2 mixture (diluted in 1× reaction buffer) is added per well for a final concentration of 0.25-0.3 ug/ml kinase and 10 μM PIP2. The plate is sealed and incubated for 15 minutes at room temperature. To start the reaction, 3.5 ul of ATP (diluted in 1× reaction buffer) is added per well for a final concentration of 10 μM ATP. The plate is sealed and incubated for 1 hour at room temperature. The reaction is stopped by adding 5 ul of Stop Solution per well and then 5 ul of Detection Mix is added per well. The plate is sealed, incubated for 1 hour at room temperature, and then read on an appropriate plate reader. Data is analyzed and IC50s are generated using GraphPad Prism 5. […] For PI3K α, β, δ, and γ, the nM concentration of inhibitor to reach IC50 is provided.
# p110δ/p85α = p110δ/p85α (Homo sapiens (Human), UniProt O00329); test: PI 3-Kinase (human) HTRF assay, p110δ/p85α; type: biochemical
# Sequence of p110δ/p85α (O00329 whole entry): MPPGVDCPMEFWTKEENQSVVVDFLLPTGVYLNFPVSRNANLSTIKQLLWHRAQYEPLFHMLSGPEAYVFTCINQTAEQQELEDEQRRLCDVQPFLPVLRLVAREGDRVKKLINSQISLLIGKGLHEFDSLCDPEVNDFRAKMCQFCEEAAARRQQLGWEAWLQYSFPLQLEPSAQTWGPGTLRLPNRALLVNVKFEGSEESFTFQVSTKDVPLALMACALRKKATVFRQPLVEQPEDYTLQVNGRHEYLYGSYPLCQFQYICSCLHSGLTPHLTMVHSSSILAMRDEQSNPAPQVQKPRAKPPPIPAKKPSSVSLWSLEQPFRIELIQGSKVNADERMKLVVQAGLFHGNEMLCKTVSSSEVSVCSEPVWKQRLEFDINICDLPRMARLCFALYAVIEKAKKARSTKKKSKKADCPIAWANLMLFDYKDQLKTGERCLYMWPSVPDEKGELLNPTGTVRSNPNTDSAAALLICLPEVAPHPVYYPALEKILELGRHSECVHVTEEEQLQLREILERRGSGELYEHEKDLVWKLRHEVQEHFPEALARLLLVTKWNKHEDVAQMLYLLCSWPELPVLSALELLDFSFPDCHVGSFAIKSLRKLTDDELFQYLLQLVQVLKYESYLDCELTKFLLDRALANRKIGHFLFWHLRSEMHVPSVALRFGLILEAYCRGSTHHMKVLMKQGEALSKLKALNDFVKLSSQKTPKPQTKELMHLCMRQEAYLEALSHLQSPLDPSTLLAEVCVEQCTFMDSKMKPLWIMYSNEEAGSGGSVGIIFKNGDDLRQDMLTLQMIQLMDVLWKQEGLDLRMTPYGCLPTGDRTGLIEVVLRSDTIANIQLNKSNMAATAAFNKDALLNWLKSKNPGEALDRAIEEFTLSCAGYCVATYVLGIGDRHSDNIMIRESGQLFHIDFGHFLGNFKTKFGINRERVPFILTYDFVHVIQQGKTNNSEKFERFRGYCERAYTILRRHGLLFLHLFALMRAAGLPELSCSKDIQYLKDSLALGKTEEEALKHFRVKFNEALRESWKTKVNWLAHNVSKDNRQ
# Sequence of p110δ/p85α (P27986 whole entry partner): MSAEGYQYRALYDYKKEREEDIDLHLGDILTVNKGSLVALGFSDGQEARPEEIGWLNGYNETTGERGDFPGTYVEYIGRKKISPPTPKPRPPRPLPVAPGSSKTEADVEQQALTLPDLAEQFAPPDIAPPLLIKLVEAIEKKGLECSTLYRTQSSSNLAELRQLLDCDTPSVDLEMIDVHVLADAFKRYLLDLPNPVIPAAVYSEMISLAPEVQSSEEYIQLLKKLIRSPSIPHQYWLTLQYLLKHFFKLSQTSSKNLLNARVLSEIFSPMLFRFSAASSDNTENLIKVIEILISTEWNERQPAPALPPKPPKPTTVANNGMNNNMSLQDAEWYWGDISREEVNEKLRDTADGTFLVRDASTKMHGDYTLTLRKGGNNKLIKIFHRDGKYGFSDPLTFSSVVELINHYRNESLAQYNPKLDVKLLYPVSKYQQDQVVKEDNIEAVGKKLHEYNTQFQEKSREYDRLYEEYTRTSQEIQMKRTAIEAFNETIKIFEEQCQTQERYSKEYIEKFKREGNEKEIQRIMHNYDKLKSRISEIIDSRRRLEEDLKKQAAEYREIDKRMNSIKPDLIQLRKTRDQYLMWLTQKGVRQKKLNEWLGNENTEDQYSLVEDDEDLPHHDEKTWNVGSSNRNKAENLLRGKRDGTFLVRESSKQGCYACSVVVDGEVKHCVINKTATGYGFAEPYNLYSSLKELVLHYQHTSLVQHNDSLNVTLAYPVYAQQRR
# Description: as §1
# p110γ = p110γ (Homo sapiens (Human), UniProt P48736); test: PI 3-Kinase (human) HTRF assay, p110γ; type: biochemical
# Sequence of p110γ (P48736 whole entry): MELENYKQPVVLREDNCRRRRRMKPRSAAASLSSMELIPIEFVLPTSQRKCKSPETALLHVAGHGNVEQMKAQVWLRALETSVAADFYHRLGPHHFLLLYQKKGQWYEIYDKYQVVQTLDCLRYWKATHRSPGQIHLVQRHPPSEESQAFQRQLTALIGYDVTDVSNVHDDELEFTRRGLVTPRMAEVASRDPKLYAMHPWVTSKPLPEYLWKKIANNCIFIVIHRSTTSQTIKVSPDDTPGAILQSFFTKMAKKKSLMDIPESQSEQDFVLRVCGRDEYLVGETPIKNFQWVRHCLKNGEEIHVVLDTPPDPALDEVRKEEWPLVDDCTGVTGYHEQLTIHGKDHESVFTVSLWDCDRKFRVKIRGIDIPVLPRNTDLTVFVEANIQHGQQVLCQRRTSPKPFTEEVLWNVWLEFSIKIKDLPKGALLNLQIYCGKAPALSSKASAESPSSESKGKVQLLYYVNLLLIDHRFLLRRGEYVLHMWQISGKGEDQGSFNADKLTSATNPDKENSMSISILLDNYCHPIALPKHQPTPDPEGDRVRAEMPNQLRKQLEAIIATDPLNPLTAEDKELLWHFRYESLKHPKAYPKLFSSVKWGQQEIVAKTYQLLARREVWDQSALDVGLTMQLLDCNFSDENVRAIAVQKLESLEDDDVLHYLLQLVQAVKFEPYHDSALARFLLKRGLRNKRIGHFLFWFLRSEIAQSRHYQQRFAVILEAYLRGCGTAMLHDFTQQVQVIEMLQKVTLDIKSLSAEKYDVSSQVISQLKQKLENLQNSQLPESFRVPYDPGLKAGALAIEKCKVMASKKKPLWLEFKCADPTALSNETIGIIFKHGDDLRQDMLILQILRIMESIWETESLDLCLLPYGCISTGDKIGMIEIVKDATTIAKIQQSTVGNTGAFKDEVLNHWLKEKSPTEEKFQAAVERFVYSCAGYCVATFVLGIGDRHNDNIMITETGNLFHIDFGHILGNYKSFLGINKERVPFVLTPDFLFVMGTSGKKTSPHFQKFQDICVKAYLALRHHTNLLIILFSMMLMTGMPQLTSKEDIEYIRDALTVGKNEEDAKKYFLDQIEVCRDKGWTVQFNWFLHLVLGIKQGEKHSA
# [1] = system: tumor cells with a PI3Kα mutation (e.g., MDA-MB-361 and T47D); test: Proliferation of tumor cells with PI3Kα mutation; type: cell-based; conditions: Homo sapiens
# [2] = PC3, read-out: PC3 proliferation In Vitro IC50
# [3] = in vitro, read-out: PI3K α IC50
# [4] = in vitro, read-out: PI3K β IC50
# [5] = in vitro, read-out: PI3K δ IC50
# [6] = in vitro, read-out: PI3K γ IC50
# [7] = T47D cells, read-out: T47D proliferation
# Sequence of p110β/p85α (P42338 whole entry): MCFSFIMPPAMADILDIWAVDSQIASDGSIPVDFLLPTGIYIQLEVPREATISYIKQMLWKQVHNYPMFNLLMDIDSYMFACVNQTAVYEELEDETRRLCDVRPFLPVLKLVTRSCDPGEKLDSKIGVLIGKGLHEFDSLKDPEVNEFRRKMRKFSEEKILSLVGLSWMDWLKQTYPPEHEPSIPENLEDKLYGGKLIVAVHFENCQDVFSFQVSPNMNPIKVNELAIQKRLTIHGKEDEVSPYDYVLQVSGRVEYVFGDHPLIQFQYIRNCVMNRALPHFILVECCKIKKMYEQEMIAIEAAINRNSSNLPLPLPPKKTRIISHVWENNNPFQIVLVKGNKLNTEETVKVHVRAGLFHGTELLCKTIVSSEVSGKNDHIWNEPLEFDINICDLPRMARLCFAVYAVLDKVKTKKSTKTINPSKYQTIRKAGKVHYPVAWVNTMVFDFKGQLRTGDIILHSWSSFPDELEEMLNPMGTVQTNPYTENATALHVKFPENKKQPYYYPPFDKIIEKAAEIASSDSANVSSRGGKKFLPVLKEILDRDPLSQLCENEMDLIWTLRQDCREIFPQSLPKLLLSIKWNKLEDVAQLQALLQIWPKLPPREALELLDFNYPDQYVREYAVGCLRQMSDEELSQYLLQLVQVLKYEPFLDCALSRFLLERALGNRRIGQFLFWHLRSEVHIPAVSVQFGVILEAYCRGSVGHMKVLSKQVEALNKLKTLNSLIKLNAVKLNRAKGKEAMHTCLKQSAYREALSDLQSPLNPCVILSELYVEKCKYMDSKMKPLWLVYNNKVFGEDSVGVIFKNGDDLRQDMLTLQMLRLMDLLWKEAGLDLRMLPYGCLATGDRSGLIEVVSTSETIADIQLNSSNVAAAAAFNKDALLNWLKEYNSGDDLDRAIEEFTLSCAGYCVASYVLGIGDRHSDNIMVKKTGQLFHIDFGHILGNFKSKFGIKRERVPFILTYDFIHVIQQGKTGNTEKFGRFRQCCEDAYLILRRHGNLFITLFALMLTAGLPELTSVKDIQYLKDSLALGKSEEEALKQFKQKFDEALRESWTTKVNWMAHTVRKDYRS
# Sequence of p110β/p85α (P27986 whole entry partner): as the sequence (P27986 whole entry partner) above
# Sequence of p110α/p85α (P42336 whole entry): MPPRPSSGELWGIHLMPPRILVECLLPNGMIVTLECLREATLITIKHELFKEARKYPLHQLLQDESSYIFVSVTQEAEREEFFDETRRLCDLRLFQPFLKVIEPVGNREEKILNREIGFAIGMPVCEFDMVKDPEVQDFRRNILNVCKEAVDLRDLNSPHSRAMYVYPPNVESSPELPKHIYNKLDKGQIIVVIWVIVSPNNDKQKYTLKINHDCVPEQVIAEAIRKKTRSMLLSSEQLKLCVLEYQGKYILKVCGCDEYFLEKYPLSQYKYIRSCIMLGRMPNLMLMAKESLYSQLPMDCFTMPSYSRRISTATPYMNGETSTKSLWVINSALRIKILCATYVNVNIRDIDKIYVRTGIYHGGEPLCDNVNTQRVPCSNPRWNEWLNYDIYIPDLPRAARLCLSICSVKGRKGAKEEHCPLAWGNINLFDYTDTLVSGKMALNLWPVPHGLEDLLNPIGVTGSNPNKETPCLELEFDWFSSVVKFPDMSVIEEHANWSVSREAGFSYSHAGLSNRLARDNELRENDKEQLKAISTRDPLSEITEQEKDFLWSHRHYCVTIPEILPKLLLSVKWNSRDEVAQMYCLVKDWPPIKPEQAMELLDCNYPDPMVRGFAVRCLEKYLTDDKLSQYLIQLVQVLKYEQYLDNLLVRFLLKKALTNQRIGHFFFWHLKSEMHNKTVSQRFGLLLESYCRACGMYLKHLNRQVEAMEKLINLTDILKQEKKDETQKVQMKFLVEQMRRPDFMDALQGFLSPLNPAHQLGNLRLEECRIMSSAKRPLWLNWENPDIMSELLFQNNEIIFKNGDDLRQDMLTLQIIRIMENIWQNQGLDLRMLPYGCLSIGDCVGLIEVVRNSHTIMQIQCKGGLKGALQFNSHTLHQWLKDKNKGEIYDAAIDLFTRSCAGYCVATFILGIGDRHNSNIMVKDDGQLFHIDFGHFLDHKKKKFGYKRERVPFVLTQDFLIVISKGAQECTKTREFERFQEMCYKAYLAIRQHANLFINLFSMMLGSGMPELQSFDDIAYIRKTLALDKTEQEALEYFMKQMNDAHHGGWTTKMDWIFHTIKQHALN
# Sequence of p110α/p85α (P27986 whole entry partner): as the sequence (P27986 whole entry partner) above
structure (smiles),measurement,setting,value
CO[C@H]1CCN(C(=O)c2cnc3ccc(-c4ccc5oc(N)nc5c4)cn23)C1 [compound 463],IC50,p110α/p85α; read-out: PI3K α In Vitro IC50,< 100 nM
same,IC50,p110β/p85α; read-out: PI3K β In Vitro IC50,< 10000 nM
same,IC50,p110δ/p85α; read-out: PI3K δ In Vitro IC50,< 10000 nM
same,IC50,p110γ; read-out: PI3K γ In Vitro IC50,< 1000 nM
Nc1nc2cc(-c3ccc4ncc(C(=O)N5CCC(F)(F)C5)n4c3)ccc2o1 [compound 471],IC50,p110α/p85α; read-out: PI3K α In Vitro IC50,< 100 nM
same,IC50,p110γ; read-out: PI3K γ In Vitro IC50,< 100 nM
same,IC50,[1]; [2],< 10000 nM
Nc1nc2cc(-c3ccc4ncn(CCN5CCCC5)c(=O)c4c3)ccc2o1 [compound 255],IC50,p110α/p85α; [3],< 10000 nM
same,IC50,p110β/p85α; [4],< 10000 nM
same,IC50,p110δ/p85α; [5],< 10000 nM
same,IC50,p110γ; [6],< 10000 nM
C[C@H]1CN(c2cnc3ccc(-c4ccc5oc(N)nc5c4)cc3n2)CCN1 [compound 178],IC50,p110α/p85α; read-out: PI3K α IC50,< 100 nM
same,IC50,p110β/p85α; read-out: PI3K β IC50,< 100 nM
same,IC50,p110δ/p85α; read-out: PI3K δ IC50,< 1000 nM
same,IC50,p110γ; read-out: PI3K γ IC50,< 1000 nM
Nc1nc2cc(-c3ccc4ncc(N[C@H]5CC[C@H](O)CC5)nc4c3)ccc2o1 [compound 128],IC50,p110α/p85α; read-out: PI3K α IC50,< 100 nM
same,IC50,p110β/p85α; read-out: PI3K β IC50,< 10000 nM
same,IC50,p110δ/p85α; read-out: PI3K δ IC50,< 100 nM
same,IC50,p110γ; read-out: PI3K γ IC50,< 100 nM
CN1CCN(C2CCN(c3cnc4ccc(-c5ccc6oc(N)nc6c5)cc4n3)CC2)CC1 [compound 227],IC50,p110α/p85α; [3],< 100 nM
same,IC50,p110β/p85α; [4],< 1000 nM
same,IC50,p110δ/p85α; [5],< 100 nM
same,IC50,p110γ; [6],< 10000 nM
Nc1nc2ccc(-c3ccc4ncc(N5CCOCC5)nc4c3)cc2o1 [compound 117],IC50,p110α/p85α; read-out: PI3K α IC50,< 100 nM
same,IC50,p110β/p85α; read-out: PI3K β IC50,< 1000 nM
same,IC50,p110γ; read-out: PI3K γ IC50,< 1000 nM
same,IC50,[1]; [7],< 10000 nM
CN1CCC(n2cnc3ccc(-c4cnc(Cl)c(NS(=O)(=O)c5ccccc5)c4)cc3c2=O)CC1 [compound 527],IC50,p110α/p85α; read-out: PI3K α In Vitro IC50,< 100 nM
same,IC50,p110β/p85α; read-out: PI3K β In Vitro IC50,< 100 nM
same,IC50,p110δ/p85α; read-out: PI3K δ In Vitro IC50,< 100 nM
same,IC50,p110γ; read-out: PI3K γ In Vitro IC50,< 1000 nM
CO[C@@H]1CCN(C(=O)c2cnc3ccc(-c4ccc5oc(N)nc5c4)cn23)C1 [compound 464],IC50,p110α/p85α; read-out: PI3K α In Vitro IC50,< 100 nM
same,IC50,p110γ; read-out: PI3K γ In Vitro IC50,< 1000 nM
same,IC50,[1]; [2],< 10000 nM
Cc1nccn1C1CCN(c2cnc3ccc(-c4ccc5oc(N)nc5c4)cc3n2)CC1 [compound 344],IC50,p110α/p85α; [3],< 100 nM
same,IC50,p110β/p85α; [4],< 10000 nM
same,IC50,p110δ/p85α; [5],< 1000 nM
same,IC50,p110γ; [6],< 10000 nM
CN(C)CC(=O)N1CCN(c2cnc3ccc(-c4ccc5oc(N)nc5c4)cc3n2)CC1 [compound 217],IC50,p110α/p85α; [3],< 100 nM
same,IC50,p110β/p85α; [4],< 1000 nM
same,IC50,p110δ/p85α; [5],< 1000 nM
same,IC50,p110γ; [6],< 1000 nM
CCN1CCN(C2CN(c3cnc4ccc(-c5ccc6oc(N)nc6c5)cc4n3)C2)CC1 [compound 329],IC50,p110α/p85α; [3],< 100 nM
same,IC50,p110β/p85α; [4],< 1000 nM
same,IC50,p110δ/p85α; [5],< 1000 nM
same,IC50,p110γ; [6],< 10000 nM
Nc1nc2cc(-c3ccc4ncc(N5CC(n6ccnc6)C5)nc4c3)ccc2o1 [compound 319],IC50,p110α/p85α; [3],< 100 nM
same,IC50,p110β/p85α; [4],< 1000 nM
same,IC50,p110δ/p85α; [5],< 10000 nM
same,IC50,p110γ; [6],< 1000 nM
Nc1nc2cc(-c3cn4c(-c5cn[nH]c5)cnc4cn3)ccc2o1 [compound 69],IC50,p110α/p85α; read-out: PI3K α IC50,< 1000 nM
same,IC50,p110β/p85α; read-out: PI3K β IC50,< 10000 nM
same,IC50,p110δ/p85α; read-out: PI3K δ IC50,< 10000 nM
same,IC50,p110γ; read-out: PI3K γ IC50,< 1000 nM
Cc1cc(-c2ccc3oc(N)nc3c2)cc2c(C(=O)N3CCCC3)cnn12 [compound 368],IC50,p110α/p85α; [3],< 100 nM
same,IC50,p110β/p85α; [4],< 10000 nM
same,IC50,p110δ/p85α; [5],< 1000 nM
same,IC50,p110γ; [6],< 1000 nM
Nc1nc2cc(-c3ccc4ncc(C(=O)N5CCOCC5)n4c3)cc(Cl)c2o1 [compound 359],IC50,p110α/p85α; [3],< 100 nM
same,IC50,p110β/p85α; [4],< 1000 nM
same,IC50,p110δ/p85α; [5],< 10000 nM
same,IC50,p110γ; [6],< 100 nM
Nc1nc2cc(-c3ccc4ncc(C(=O)N5CC(F)(F)C5)n4c3)ccc2o1 [compound 473],IC50,p110α/p85α; read-out: PI3K α In Vitro IC50,< 100 nM
same,IC50,p110γ; read-out: PI3K γ In Vitro IC50,< 100 nM
same,IC50,[1]; [2],< 1000 nM
Nc1nc2cc(-c3ccc4ncc(N5CC(N6CC[C@H](O)C6)C5)nc4c3)ccc2o1 [compound 322],IC50,p110α/p85α; [3],< 100 nM
same,IC50,p110β/p85α; [4],< 1000 nM
same,IC50,p110δ/p85α; [5],< 10000 nM
same,IC50,p110γ; [6],< 1000 nM
COc1ncc(-c2ccc3ncc(C(=O)N4CCOCC4)n3c2)cc1NS(=O)(=O)c1ccc(F)cc1 [compound 421],IC50,p110α/p85α; read-out: PI3K α In Vitro IC50,< 100 nM
same,IC50,p110β/p85α; read-out: PI3K β In Vitro IC50,< 1000 nM
same,IC50,p110δ/p85α; read-out: PI3K δ In Vitro IC50,< 100 nM
same,IC50,p110γ; read-out: PI3K γ In Vitro IC50,< 100 nM
CS(=O)(=O)CCN1CCN(C(=O)c2cnc3ccc(-c4ccc5oc(N)nc5c4)cn23)CC1 [compound 198],IC50,p110α/p85α; [3],< 100 nM
same,IC50,p110β/p85α; [4],< 10000 nM
same,IC50,p110δ/p85α; [5],< 10000 nM
same,IC50,p110γ; [6],< 1000 nM
Nc1nc2cc(-c3ccc4ncc(N5CC(O)C5)nc4c3)ccc2o1 [compound 216],IC50,p110α/p85α; [3],< 100 nM
same,IC50,p110β/p85α; [4],< 1000 nM
same,IC50,p110δ/p85α; [5],< 10000 nM
same,IC50,p110γ; [6],< 100 nM
Cc1cc(-c2ccc3oc(N)nc3c2)cc2c(-c3ccncc3)cnn12 [compound 397],IC50,p110α/p85α; read-out: PI3K α In Vitro IC50,< 100 nM
same,IC50,p110β/p85α; read-out: PI3K β In Vitro IC50,< 1000 nM
same,IC50,p110δ/p85α; read-out: PI3K δ In Vitro IC50,< 1000 nM
same,IC50,p110γ; read-out: PI3K γ In Vitro IC50,< 100 nM
CN1CCC(NC(=O)c2cnc3ccc(-c4ccc5oc(N)nc5c4)nn23)CC1 [compound 203],IC50,p110α/p85α; [3],< 100 nM
same,IC50,p110β/p85α; [4],< 100 nM
same,IC50,p110δ/p85α; [5],< 1000 nM
same,IC50,p110γ; [6],< 100 nM
Nc1nc2cc(-c3ccc4ncc(N5CCOCC5)nc4c3)ccc2s1 [compound 116],IC50,p110α/p85α; read-out: PI3K α IC50,< 100 nM
same,IC50,p110β/p85α; read-out: PI3K β IC50,< 1000 nM
same,IC50,p110γ; read-out: PI3K γ IC50,< 1000 nM
same,IC50,[1]; [7],< 1000 nM
CC(=O)N1CCN(c2cnc3ccc(-c4ccc5oc(N)nc5c4)cc3n2)CC1 [compound 85],IC50,p110α/p85α; read-out: PI3K α IC50,< 100 nM
same,IC50,p110β/p85α; read-out: PI3K β IC50,< 100 nM
same,IC50,p110δ/p85α; read-out: PI3K δ IC50,< 100 nM
same,IC50,p110γ; read-out: PI3K γ IC50,< 100 nM
